Data on seven molecules can be found in US7261901B2, “Vaccine and compositions for the prevention and treatment of neisserial infections” (University of Iowa Research Foundation, priority 2001, dated 2007).

The test system of assay [1] is primary ectocervical cells. As to the kind of experiment: Gentamycin-resistance invasion assay of N. gonorrhoeae 1291 with inhibitors of cytoskeletal motility and protein synthesis, ectocervical cells. It is filed as cell-based, human. The conditions noted are these: for effect on bacterial entry / gonococcal invasion: both cell types (endo- and ectocervical). Here is the method: Invasion Assays in the Presence of Inhibitors of Cytoskeletal Motility and Protein Synthesis: Cervical cells were passed to 12 mm collagen-coated coverslips as outlined above. Prior to infection with N. gonorrhoeae 1291 wild-type cells, primary cell cultures were left untreated, or they were pre-incubated with 300 nM wortmannin (Sigma), 1 μM cytochalasin D (Sigma), or 400 mM ethylene glycol bis-(2-aminoethyl ether)-N,N, N′, N′ tetraacetic acid ((EGTA) Amresco, Solon, Ohio) for 2 h, 30 min, and 30 min, respectively, or they were pretreated with 100 µg/ml nocodazole (Calbiochem-Novabiochem Corp., La Jolla, Calif.) for 1 h at 4° C. followed by a 30 min incubation at 37° C. The requirement for de novo protein synthesis, either by the bacteria or by the primary cervical cells, was tested by pretreatment (30 min, 37° C.) of the bacterial cultures or cervical cell monolayers with 4 μg/ml chloramphenicol (Sigma) or 25 μM cycloheximide (Calbiochem-Novabiochem Corp.), respectively. All chemical reagents used were maintained in the infection medium throughout the course of the infection. […] Infection was allowed to progress at 37° C., 5% CO2, for 1.5 h after which the medium was removed, the cells were rinsed with PBS, and then incubated with KGM-2 containing 100 μg/ml gentamycin to kill extracellular bacteria. Post incubation the cervical cells were lysed with 0.5% saponin to release invasive bacteria. Percent invasion was determined as a function of the original inoculum and the number of colonies formed with subsequent plating of the cellular lysate. A Kruskal-Wallace ANOVA was used to determine the statistical significance of the calculated percent invasion for each of the cytoskeletal motility inhibitors used with respect to the untreated, infected cell cultures.

Another assay concerns PLD. As to the kind of experiment: PLD activity (Amplex Red Phospholipase D Assay Kit) in gonococci, infected cervical cell lysates, fractions and supernatants. It is filed as biochemical, N. gonorrhoeae. Here is the method:
(§1) 4. Determination of PLD Activity. PLD activity was accessed using the Amplex™ Red Phospholipase D Assay Kit (Molecular Probes, Eugene Oreg.). Wild-type and PLD mutant gonococci were suspended in PLD assay buffer to a final concentration of 10^7 bacteria ml^−1, and activity was determined according to the manufacturer's protocol. Assessment of PLD activity at acidic pH was determined in a two-step assay according to the manufacturer's protocol. For the first step, 10^8 gonococci were suspended in PBS with the pH adjusted to 3.0, 4.5, or 6.0. Gonococcal suspensions were diluted 10-fold in PLD assay buffer for the second step of the reaction. Cervical cell fractions were prepared as outlined below and PLD activity was assessed at neutral pH according to the manufacturer's protocol.
5. Fractionation of Primary Cervical Cells. Uninfected (control) and infected cervical cell monolayers were lysed in buffer A (50 mM tris, pH 7.5; 10 mM NaCl, 1 mM KCl; 2 mM MgCl2, 1 mM PMSF) by scraping cervical cells from tissue culture dishes placed on ice. The cell lysate was sonicated (two bursts of 20 seconds each). Cell debris and the nuclear fraction was removed by centrifugation (750×g, 10 minutes), and the supernatant from this spin was then subjected to filtration through a low-protein binding 0.22 μm syringe filter to ensure removal of gonococci. Alternatively, gonococci were removed by immunoprecipitation (as described by Wen et al., 2000) using the monoclonal antibody, 2C3, which recognizes the H.8 outer membrane protein of the pathogenic Neisseria. Sucrose was added to the resulting gonococcus-depleted supernatant (S1) to a final concentration of 300 mM. Ultracentrifugation (150,000×g, 90 minutes) was then performed to produce the plasma membrane-(pellet) and cytosol (supernatant 2, S2)-enriched fractions. The membrane-enriched fraction was resuspended in PLD assay buffer (50 mM Tris, 5 mM CaCl2, pH 8.0). S2 was concentrated by filtration through Centricon YM-30 centrifugal filter units (Millipore) after which cytosolic constituents were recovered in PLD assay buffer. Where indicated, prior to infection studies primary pex and pen cell monolayers were treated with 300 nM wortmannin (Sigma) (2 hours, 37° C.) or 1 μM cytochalasin D (Sigma) (30 minutes, 37° C.) to inhibit macropinocytosis of gonococci. Wortmannin and cytochalasin D were maintained in cervical cell cultures during the course of infection.
as §1, with “Determination of” for “4. Determination of”, “Assessment of gonococcal PLD activity” for “Assessment of PLD activity”
Fractionation of Primary Cervical Cells. Uninfected (control) and infected cervical cell monolayers were lysed in buffer A (50 mM tris, pH 7.5; 10 mM NaCl, 1 mM KCl; 2 mM MgCl2, 1 mM PMSF) by scraping cervical cells from tissue culture dishes placed on ice. The cell lysate was sonicated (two bursts of 20 seconds each). […] Sucrose was added to the resulting gonococcus-depleted supernatant (S1) to a final concentration of 300 mM. Ultracentrifugation (150,000×g, 90 minutes) was then performed to produce the plasma membrane-(pellet) and cytosol (supernatant 2, S2)-enriched fractions. The membrane-enriched fraction was resuspended in PLD assay buffer (50 mM Tris, 5 mM CaCl2, pH 8.0). […]

Another assay relates to Ectocervical Cells. The experiment in a line: Association and invasion (gentimicin-resistance) assays, primary ectocervical (pex) cells. It is filed as cell-based, human. Here is the method: 8. N. gonorrhoeae Attachment to and Invasion of Primary, Human, Cervical Cells. Primary cervical cell monolayers were infected with wild-type or PLD mutant gonococci as outlined above. Variable concentrations of Streptomyces spp. PLD (SsPLD) (Sigma), PMA, or 4-α phorbol were included in association (adherence and invasion) or invasion assays, as noted. Cervical cells were preincubated (30 minutes, 37° C.) with 200 nM PMA or 4-α phorbol before the addition of gonococci. 10 units ml^−1 SsPLD was added simultaneously with gonococci. Alternatively, where noted, cervical cell monolayers were pre-incubated (30 minutes, 37° C.) with pervanadate, which was made by mixing 100 μM ortho-sodium vanadate in 3 mM hydrogen peroxide. In separate assays, infection supernatants were collected from wild-type or PLD mutant-infected cervical cell monolayers, gonococci were removed by filtration through a 0.22 μm syringe filter (i.e., wild-type or mutant primed supernatants) and were added to association and/or invasion assays, as noted. The ability of gonococci to adhere to and/or invade pex and pen cells was quantitatively determined using standard gentimicin-resistance assays, performed as described previously (Edwards et al., 2000), and in which chemical or protein additives were included or excluded from the invasion assay as described above. The total association (i.e., adherence and invasion) of gonococci with pex and pen cells was quantitated by the omission of gentimicin from the above described invasion assay. Percent invasion of N. gonorrhoeae 1291 or 1291ΔPLDin the presence or absence of experimental additives was determined as a function of the original inoculum and the number of colonies formed with subsequent plating of the cellular lysate. A Kruskal-Wallis non-parametric analysis of variance was used to determine the statistical significance of the association and invasion assays described above.
N. gonorrhoeae Attachment to and Invasion of Primary, Human, Cervical Cells. Primary cervical cell monolayers were infected with wild-type or PLD mutant gonococci as outlined above. Variable concentrations of PtC (Sigma), ethanol, 2-butanol, or Streptomyces spp. PLD (SsPLD) (Sigma) were included in association (adherence and invasion) or invasion assays, as noted. PtC, ethanol, 2-butanol, or 10 units ml^−1 SsPLD were added simultaneously with gonococci. In separate assays, infection supernatants were collected from wild-type or PLD mutant-infected cervical cell monolayers, gonococci were removed by filtration through a 0.22 μm syringe filter (to yield primed wild-type or mutant supernatants), which were then added to association and/or invasion assays, as noted. The ability of gonococci to adhere to and/or invade pex and pen cells was quantitatively determined using standard gentimicin-resistance assays, performed as described previously (Edwards et al., 2000) and in which chemical or protein additives were included or excluded from the invasion assay as described above. The total association (i.e., adherence and invasion) of gonococci with pex and pen cells was quantitated by the omission of gentimicin from the above described invasion assay. Percent invasion of N. gonorrhoeae 1291 or 1291ΔPLD in the presence or absence of experimental additives was determined as a function of the original inoculum and the number of colonies formed with subsequent plating of the cellular lysate. Inhibition of gonococcal attachment and/or invasion by exogenous PtC, ethanol, or 2-butanol was determined as a normalized function of the ability of gonococci to attach to and/or invade primary cervical cells in the absence of the competimer inhibitor. A Kruskal-Wallis non-parametric analysis of variance was used to determine the statistical significance of the association and invasion assays described above.

For assay [2], the system named is primary human ectocervical cells. The experiment in a line: rI-domain inhibition of adherence and invasion of primary ectocervical cells by N. gonorrhoeae 1291. The class given is cell-based. As to the method: Studies were performed evaluating the ability of the rI-domain to inhibit adherence and invasion of primary human ectocervical cells by Neisseria gonorrhoeae. The cervical cells were infected with 107 N. gonorrhoeae strain 1291. Recombinant I-domain is a potent inhibitor of ectocervical cell association by Neisseria gonorrhoeae. As little as 1 ng of rI-domain gives over 90% inhibition of invasion. With decreasing amounts of rI-domain the inhibition decreases in a dose dependent fashion.

The mark [3] stands for this setting: PtC 10.0 µg/ml, wild-type gonococci.

For `O=C(N[C@H](CO)[C@H](O)c1ccc([N+](=O)[O-])cc1)C(Cl)Cl` [Chloramphenicol, chloramphenicol], in assay [1], the “effect on bacterial entry / gonococcal invasion” value is reported as “did not inhibit gonococcal invasion”.
For `C[C@@H]1C[C@@H]([C@H](O)CC2CC(=O)NC(=O)C2)C(=O)[C@@H](C)C1` [Cycloheximide, cycloheximide], in assay [1], the “effect on bacterial entry / gonococcal invasion” value was “did not inhibit gonococcal invasion”.
Regarding `C=C1[C@@H](C)[C@H]2[C@H](Cc3ccccc3)NC(=O)[C@]23[C@H](OC(C)=O)/C=C/[C@@](C)(O)C(=O)[C@@H](C)C/C=C/[C@H]3[C@@H]1O` [Cytochalasin D, cytochalasin D], the “PLD Activity in Ectocervical Cell Fractions [Mean (variance)]” value with PLD (Cytosolic fraction, 1291ΔPLD infected w/ inhibitor (300 nM wortmannin or 1 μM cytochalasin D)) is 0.330 (0.07) Fluorescence Units; with PLD (Cytosolic fraction, Uninfected w/ inhibitor (300 nM wortmannin or 1 μM cytochalasin D)), 0.395 (0.03) Fluorescence Units; with PLD (Cytosolic fraction, WT 1291 infected w/ inhibitor (300 nM wortmannin or 1 μM cytochalasin D)), 0.462 ((0.03) Fluorescence Units; in the assay with PLD (Membrane fraction, 1291ΔPLD infected w/ inhibitor (300 nM wortmannin or 1 μM cytochalasin D)) it was 0.393 (0.01) Fluorescence Units; in the assay with PLD (Membrane fraction, Uninfected w/ inhibitor (300 nM wortmannin or 1 μM cytochalasin D)), 0.389 (0.01) Fluorescence Units; with PLD (Membrane fraction, WT 1291 infected w/ inhibitor (300 nM wortmannin or 1 μM cytochalasin D)) it was 0.436 (0.03) Fluorescence Units. For the same molecule, the “effect on bacterial entry / gonococcal invasion” value in assay [1] is “prohibited bacterial entry”.
Consider `O=C(O)CN(CCOCCOCCN(CC(=O)O)CC(=O)O)CC(=O)O` [EGTA, ethylene glycol bis-(2-aminoethyl ether)-N,N, N′, N′ tetraacetic acid], for which, in assay [1], the “effect on bacterial entry / gonococcal invasion” value is listed as “prohibited bacterial entry”.
With `COC(=O)Nc1nc2ccc(C(=O)c3cccs3)cc2[nH]1` [Nocodazole, nocodazole], the “decrease in gonococcal invasion” value in assay [1] (pretreatment of primary cervical cell monolayers) was approximately 67%.
Consider phosphatidylcholine [PtC], for which the “Inhibition (%)” value in the assay on Ectocervical Cells (setting [3]) is given as 98.7786 (0.08) %; in the assay on Ectocervical Cells (PtC 0.01 g/ml), 68.8105 (2.15) %; in the assay with Ectocervical Cells (PtC 0.1 g/ml), 87.3571 (0.28) %; in the assay with Ectocervical Cells (PtC 1.0 g/ml), 92.4681 (0.38) %. The “Invasion (%)” value in the assay with Ectocervical Cells (setting [3]) is listed as 0.0331 (0.01) %; in the assay with Ectocervical Cells (PtC 0.01 g/ml) it was 0.8379 (0.03) %; in the assay with Ectocervical Cells (PtC 0.1 g/ml) it was 0.3418 (0.01) %; with Ectocervical Cells (PtC 1.0 g/ml), 0.2038 (0.01) %.

B1: rI domain: recombinant murine I-domain of CR3 alpha-subunit, 23 kilodalton peptide with Myc and His domains (SEQ ID NO: 11) (protein, listed as Mus musculus)
chain: FPQQESDIVFLIDGSGSINNIDFQKMKEFVSTVMEQFKKSKTLFSLMQYSDEFRIHFTFNDFKRNPSPRSHVSPIKQLNGRTKTASGIRKVVRELFHKTNGARENAAKILVVITDGEKFGDPLDYKDVIPEADRAGVIRYVIGVGNAFNKPQSRRELDTIASKPAGEHVFQVDNFEALNTIQNQLQEKIFAIPAAASFL
modifications: Myc and His tags
With B1, the “% inhibition of invasion of primary exocervical cells” value in assay [2] (rI domain 1 pg/ml) is on record as 17.4%; in assay [2] (rI domain 10 pg/ml) it was 56.3%; in assay [2] (rI domain 100 pg/ml) it was 77.5%; in assay [2] (rI domain 1 ng/ml), 92.1%; in assay [2] (rI domain 1 ng/ml, listed as rI-domain), “over 90%”; in assay [2] (rI domain 10 ng/ml), 94.6%. Besides, the “% inhibition of invasion of primary exocervical cells” value in assay [2] (rI domain 100 ng/ml) worked out at 96.8%; in assay [2] (rI domain 1 μg/ml, N. gonorrhoeae 1291) it was 98.56%.
